Measurements published in paper PMC8766756, “Insights on Cancer Cell Inhibition, Subcellular Activities, and Kinase Profile of Phenylacetamides Pending 1H-Imidazol-5-One Variants” (Frontiers in Pharmacology, 2022).

Tests used:
[1] = test system: PC3 prostate cancer cell line; experiment: SRB cytotoxicity assay; format: cell-based, human; settings: Homo sapiens, 72 h, read-out: IC50 ± SEM PC3
Experimental: (§1) The compounds were screened for their anticancer activities against a variety of cancer cell lines. The cytotoxic effect of the compounds was evaluated using the sulforhodamine B (SRB) cytotoxicity assay for breast cancer line (MCF7) and prostate cancer cell line (PC3) ([Vichai and Kirtikara, 2006]; [Rana et al., 2021]) and 3-(4,5-dimethylthiazol-2-yl)-2,5-diphenyl-2H-tetrazolium bromide (MTT) assay for the colon cancer (HCT116) cell lines ([El-Huneidi et al., 2020]). The CellTiter-Blue® cell viability assay was performed on the various leukemia cell lines, HL60, NB4, and KG1a cells ([Akter et al., 2019]). The IC50 values are illustrated in Table 1.
(§2) MCF7 (breast), PC3 (prostate), and HCT116 (colon) cancer cell lines were obtained from ATCC, Manassas, VA, USA. Cells were grown in Roswell Park Memorial Institute-1640 (RPMI-1640) medium (Thermo Fisher Scientific, Inc., Waltham, MA, USA), supplemented with 10% heat inactivated fetal bovine serum (FBS), 50 units/mL of penicillin, and […] of streptomycin and maintained at 37°C in a humidified atmosphere containing 5% CO2. The cells were maintained as “monolayer culture” by serial subculturing.
(§3) Exponentially growing MCF7 and PC3 cells were collected using 0.25% Trypsin-EDTA and were then seeded in 96-well plates at a density of 1,000–2,000 cells/well in 10% FBS and penicillin/streptomycin supplemented RPMI-1640 medium. After 24 h, the cells were treated with different concentrations of the test compounds and incubated for 72 h at 37°C in a humidified atmosphere containing 5% CO2. Next, the cells were fixed by trichloroacetic acid (TCA) (10% final concentration in wells) directly to the wells and incubated for 1 h at 4°C, then the cells were washed with distilled water five times to remove excess TCA, media, serum proteins, and metabolites, followed by air drying. After that, the fixed cells were stained with 0.4% SRB dissolved in 1% acetic acid for 10 min at room temperature, and excess stain was removed by quickly rinsing with 1% acetic acid. The residual acetic acid was removed completely by air drying the plates for 24 h, and the dye was solubilized with Tris buffer (pH = 7.4, 10 mM) for 5 min on a shaker at 1,600 rpm. The optical density of each well was measured spectrophotometrically at 564 nm with an ELISA microplate reader (ChroMate-4300, FL, USA). The IC50 values were calculated according to the equation for Boltzman sigmoidal concentration–response curve using the nonlinear regression fitting models (GraphPad®, Prism Version 5).

[2] = test system: MCF7 breast cancer cell line; experiment: SRB cytotoxicity assay; format: cell-based, human; settings: for IC50: Homo sapiens, MCF7, 72 h, MCF7, SRB, 72 h, read-out: IC50 ± SEM MCF7
Experimental: as §1, §2, §3

[3] = test system: HCT116 colon cancer cell line; experiment: MTT antiproliferative assay; format: cell-based; settings: Homo sapiens, HCT-116; HCT116, MTT, 72 h; read-out: IC50 ± SEM HCT116
Experimental: as §1, §2
The test compounds were evaluated for antiproliferative activity using the MTT viability assay against the HCT116 cell line. The cells were seeded in triplicate in 96-well plates at a density of 10 × 10^3 cells/mL in a total volume of 200 µL per well. 0.1% of DMSO was used as a vehicle control. Each well was treated with 2 µL of test compound, which had been preprepared as stock solutions in ethanol to furnish the concentration range of the study, 0.1–50 μM, and re-incubated for a further 72 h at 37°C in a humidified atmosphere containing 5% CO2. The culture medium was then removed, and the cells were washed with 100 µL of PBS, and 100 µL of MTT was added, to reach a final concentration of 1 mg/ml of MTT. The cells were incubated for 3 h in darkness at 37°C. After removal of MTT solution, solubilization was initiated through the addition of […] of DMSO, and the cells were maintained at room temperature in darkness for 20 min to ensure thorough color diffusion before reading the absorbance with a microplate reader at 570 nm. The results were expressed as percentage viability relative to vehicle control (100%). The dose–response curves were plotted, and the IC50 values (concentration of drug resulting in 50% reduction in cell survival) were obtained using the commercial software package Prism (GraphPad® Software, Inc., La Jolla, CA, USA). All the experiments were repeated in at least three independent experiments.

[4] = test system: HL60 leukemia cell line; experiment: CellTiter-Blue cell viability assay; format: cell-based; settings: Homo sapiens, HL-60, 48 h, read-out: IC50 ± SEM HL60
Experimental: as §1
HL60, NB4, and KG1a were purchased from CLS Cell Line Service GmbH (Eppelheim, Germany). All cell lines were cultured in RPMI-1640 medium supplemented with 10% FBS (Thermo Fisher Scientific) and ciprofloxacin (10 μg/ml; Cipla Limited; Mumbai, India), at 37°C with 5% CO2 in a humidified incubator.
The CellTiter-Blue® Cell Viability assay was acquired from Promega Corporation (Madison, WI, USA). The cell viability assay was performed as follows: the cells (10^4/well) were incubated with a concentration gradient of the test compounds ranging from 0.01 to 100 μM, in 96-well plates for 48 h at 37°C. Subsequently, 20 µL of the CellTiter-Blue® Cell Viability reagent was added to each well and incubated for an additional 2 h for the development of fluorescence. The fluorescence emission was measured at 590 nm using the SpectraMax® i3x Multi-Mode Microplate Reader (Molecular Devices, LLC; San Jose, CA, USA.) and plotted against the drug concentrations to determine the IC50 of the test compounds.

[5] = biological target: Src kinase; parameters: method as in Antonarakis et al., 2013; settings: ref Antonarakis et al., 2013; read-out: Src kinase inhibition IC50; cited from earlier work
[6] = test system: tubulin polymerization; parameters: method as in earlier work; settings: ref Hangauer, 2007; Smolinski et al., 2018; Markham and Duggan, 2021; read-out: tubulin polymerization inhibition IC50; cited from earlier work

Row | melting point [°C] | IC50 [3] [µM] | IC50 [4] [µM] | Structure (SMILES) | IC50 [1] [µM] | IC50 [2] [µM] | times less active than 4c (KIM-161) ([2]; on MCF7 and PC3 cells) | activity relative to KIM-161 ([2]; phenyl instead of methyl, Table 1) | IC50 [5] [µM] | IC50 [6] [µM]
1 | 189 to 200 | – | – | COc1ccc(C=C(NC(C)=O)C(=O)Nc2ccc(CC(=O)NCc3ccccc3)cc2)cc1 (stereo in doubt) [Compound 5, (E)-2-acetamido-N-(4-(2-(benzylamino)-2-oxoethyl)phenyl)-3-(4-methoxyphenyl) acrylamide] | 41.1 ± 9.55 | 44.3 ± 9.2 | 20–40 times | – | – | –
2 | 164 to 165 | – | – | CC1=N/C(=C\c2ccccc2)C(=O)N1c1ccc(CC(=O)NCc2ccccc2)cc1 [Compound 4a, (Z)-N-Benzyl-2-(4-(4-benzylidene-2-methyl-5-oxo-4,5-dihydro-1H-imidazol-1-yl)phenyl)acetamide] | 1.67 ± 0.66 | 11.6 ± 2.01 | – | – | – | –
3 | 209 to 211 | > 50 | – | CC1=N/C(=C\c2ccc(Cl)cc2)C(=O)N1c1ccc(CC(=O)NCc2ccccc2)cc1 [Compound 4b, (Z)-N-Benzyl-2-(4-(4-(4-chlorobenzylidene)-2-methyl-5-oxo-4,5-dihydro-1H-imidazol-1-yl)phenyl)acetamide] | 6.87 ± 0.41 | 20.8 ± 1.35 | – | – | – | –
4 | – | 6.13 ± 1.35 | 1.44 ± 0.07 | COc1cc(/C=C2\N=C(C)N(c3ccc(CC(=O)NCc4ccccc4)cc3)C2=O)ccc1O [Compound 4d, (Z)-N-Benzyl-2-(4-(4-(4-hydroxy-3-methoxybenzylidene)-2-methyl-5-oxo-4,5-dihydro-1H-imidazol-1-yl)phenyl)acetamide] | 5.83 ± 1.44 | 9.48 ± 1.16 | – | – | – | –
5 | 218 to 219 | – | – | O=C(Cc1ccc(N2C(=O)/C(=C/c3ccccc3)N=C2c2ccccc2)cc1)NCc1ccccc1 [Compound 4e, (Z)-N-Benzyl-2-(4-(4-benzylidene-5-oxo-2-phenyl-4,5-dihydro-1H-imidazol-1-yl)phenyl)acetamide] | 41.7 ± 2.99 | 34.9 ± 8.08 | – | – | – | –
6 | 218 to 220 | – | – | O=C(Cc1ccc(N2C(=O)/C(=C/c3ccc(Cl)cc3)N=C2c2ccccc2)cc1)NCc1ccccc1 [Compound 4f, (Z)-N-Benzyl-2-(4-(4-(4-chlorobenzylidene)-5-oxo-2-phenyl-4,5-dihydro-1H-imidazol-1-yl)phenyl)acetamide] | 74.2 ± 12.3 | 44.2 ± 8.67 | – | – | – | –
7 | 193 | – | – | COc1ccc(/C=C2\N=C(c3ccccc3)N(c3ccc(CC(=O)NCc4ccccc4)cc3)C2=O)cc1 [Compound 4g, (Z)-N-Benzyl-2-(4-(4-(4-methoxybenzylidene)-5-oxo-2-phenyl-4,5-dihydro-1H-imidazol-1-yl)phenyl)acetamide] | 38.7 ± 5.01 | 32.1 ± 3.98 | – | less than one-tenth | – | –
8 | 109 to 112 | – | – | COc1cc(/C=C2\N=C(c3ccccc3)N(c3ccc(CC(=O)NCc4ccccc4)cc3)C2=O)ccc1O [Compound 4h, (Z)-N-Benzyl-2-(4-(4-(4-hydroxy-3-methoxybenzylidene)-5-oxo-2-phenyl-4,5-dihydro-1H-imidazol-1-yl)phenyl)acetamide] | 37.5 ± 15.4 | 35.1 ± 4.57 | – | – | – | –
9 | – | – | – | O=C(Cc1ccc(-c2ccc(OCCN3CCOCC3)cc2)cn1)NCc1ccccc1 [KX2-391, Tirbanibulin] | – | – | – | – | 0.025 | 0.25
